Data: the NIST ThermoML archive (doi:10.1021/je900978x)

Conditions: Fluid (supercritical or subcritical phases), Buoyancy - hydrostatic balance with magnetic suspension - one sinker

CC [ethane]
Conditions | mass density [kg/m3]
298.15 K, 2000 kPa | 29.226
298.15 K, 5987 kPa | 352.999
298.15 K, 7909 kPa | 371.593
298.15 K, 10071 kPa | 385.867
298.15 K, 14959 kPa | 407.911
298.15 K, 20004 kPa | 423.934
298.15 K, 24927 kPa | 436.235
298.15 K, 29893 kPa | 446.599
298.15 K, 35020 kPa | 455.82
298.15 K, 39905 kPa | 463.582
298.15 K, 49977 kPa | 477.362
298.15 K, 75091 kPa | 503.592
298.15 K, 99827 kPa | 523.125
298.15 K, 119760 kPa | 536.225
298.15 K, 149807 kPa | 552.995
350 K, 1999 kPa | 22.819
350 K, 29974 kPa | 384.889
350 K, 49928 kPa | 430.315
350 K, 74959 kPa | 464.696
350 K, 100019 kPa | 489.111
350 K, 124863 kPa | 508.192
350 K, 149906 kPa | 524.195
350 K, 172157 kPa | 536.528
400 K, 805 kPa | 7.452
400 K, 7325 kPa | 84.481
400 K, 27286 kPa | 311.921
400 K, 48575 kPa | 383.533
400 K, 69346 kPa | 421.214
400 K, 92289 kPa | 450.02
400 K, 117459 kPa | 473.901
400 K, 139686 kPa | 491.026
400 K, 154657 kPa | 501.119
400 K, 166558 kPa | 508.474
400 K, 181565 kPa | 517.111
400 K, 196062 kPa | 524.823
450 K, 1998 kPa | 16.685
450 K, 5021 kPa | 44.467
450 K, 10001 kPa | 96.599
450 K, 20005 kPa | 202.282
450 K, 30018 kPa | 272.417
450 K, 49974 kPa | 346.238
450 K, 69967 kPa | 388.105
450 K, 79928 kPa | 403.693
450 K, 99962 kPa | 429.113
450 K, 119860 kPa | 449.29
450 K, 139478 kPa | 465.963
